Results reported in patent publication US20120329879A1, “BETA-ADRENERGIC RECEPTOR AGONISTS AND USES THEREOF” (THE UNIVERSITY OF TENNESSEE RESEARCH FOUNDATION, priority 2010, published 2012).
Entries after “also recorded” stand apart in the source; their conditions may differ.

Tests used:
[1] = system: left ventricle; test: Heart left ventricle sections and collagen staining in type I diabetic rats; assay type: in vivo, rat; details: type I diabetic rats treated daily with 1 mM
Text: Staining is for collagen intensity (FIG. 11B), which is increased in diabetes. Analyses on the rats were done for acute changes (8 weeks of diabetes, 45 rats) and chronic changes (8 months of diabetes, 45 rats). In addition to all measurements on the retina, tissue sections of the heart were taken at 8 weeks and 8 months to insure that there is no hypertrophy of the ventricles due to the drug. A Western blot for myosin light chain, a surrogate marker of cardiovascular hypertrophy was also performed. Each month, all rats receive 2 analyses of visual function, electroretinogram (ERG) and live retinal imaging using Optical Coherence […] (OCT). Retinal thickness and live retinal imaging were assessed using rodent OCT. This technology allows for non-invasive visualization of each layer of the retina for multiple testing of the same animal.

[2] = system: PKA; test: PKA ELISA of retinal lysates after Compound 2 eye drops in diabetic rats; assay type: in vivo, rat; details: topical 1 mM once daily for 4 days, compared with other doses (1 mM to 20 mM), hydrochloride
Method: To determine whether topical application of Compound 2 could reach the retina and elicit response, dose and time course studies were performed. For those studies, animals were made diabetic for 2 months using STZ. For 4 days, rats received a variety of doses of either Compound 2 (1 mM to 20 mM) or PBS once or twice each day. After the 4 days of eye drop treatment to both eyes, the diabetic and control animals were euthanized. Since beta-adrenergic receptor stimulation should increase cyclic adenosine monophosphase production and activate protein kinase A, retinal lysates were processed for a PKA ELISA (MesaCup PKA ELISA, Upstate, Temecula, Calif.). […] At 2 or 8 months, retinas were assessed for diabetes-induced degeneration of retinal cell numbers and retinal thickness (2 months) and for degenerate capillaries (8 months). TNF activity, cleaved caspase 3 and phosphorylation of insulin receptor beta and Akt were assessed at both time points. […]

[3] = system: retinal vasculature of hypoxic mice; test: Oxygen-induced retinopathy model of proliferative diabetic retinopathy; assay type: in vivo; details: 1 mM eye drops once daily on days 13, 14, 15, sacrificed day 17
Method: A model of oxygen-induced retinopathy was used to determine the effects in vivo of Compound 2 on mice. Mice were placed into a chamber with 100% oxygen at day 7 of life. On day 12, they were removed from the chamber into normal air. The retina interprets this as hypoxia and starts angiogenesis. Mice were treated with 1 mM Compound 2 in eye drops once daily on days 13, 14, 15. Animals were sacrificed on day 17. FIGS. 19A-19 Retinal flat mounts were prepared.

[4] = system: cleaved caspase 3; test: Cleaved caspase 3 ELISA of retinal lysates of diabetic rats; assay type: in vivo, rat; details: Compound 2 eye drops
Text: To determine the TNF concentration (Pierce, Rockford Ill.) and levels of cleaved caspase 3 (Cellular Signaling, Danvers, Mass.), ELISA analyses were done according to manufacturers instructions, except that equal protein was loaded into the cleaved caspase 3 ELISA so the optical density numbers can be used.

[5] = system: Human retinal endothelial cells (HREC); test: TNFalpha and cleaved caspase 3 ELISA in retinal endothelial cells cultured in high glucose; assay type: cell-based; details: 50 nM
Method: Human retinal endothelial cells (HREC) were purchased from Cell Systems (Kirkland, Wash.) and grown in either basal (5 mM glucose) or growth (25 mM glucose) media. Both media is supplemented with 10% FBS and antibiotics. The day prior to experiments, cells are serum-starved for 18-24 hours. Rat Müller cells (rMC-1) were grown in DMEM medium with 5 mM glucose or 25 mM glucose. Media was supplemented with 10% FBS and antibiotics. Cells were serum starved prior to all experiments for 18-24 hours.
Human retinal endothelial cells (HREC) and rat Muller cells (rMC-1) in both glucose conditions were treated with Compound 2 at doses of 10 nM, 50 nM, 100 nM, 1 μM, and 10 μM of Compound 2. Cells of each type were grown in medium containing L-glucose to control for changes in osmolarity. 10 μM isoproterenol was also used for each condition as a positive control. Müller cells were treated for 1 hour and 24 hours, while HREC were treated for 30 and 60 minutes.
Following treatment, cells were collected into lysis buffer containing protease and phosphatase inhibitors. ELISA analyses for TNFalpha, cleaved caspase 3, and PKA were done according to manufacturers instructions. Data is compared against non-treated cells and cells at the various doses. A Kruskal-Wallis test is done, with a Dunn's test for secondary analyses. […] The dose that decreases TNFalpha and caspase 3 levels also increases PKA activity.

[6] = system: Akt (Ser 473); test: Western blot of phosphorylated Akt to total Akt in rat retina; assay type: in vivo; details: diabetic rats, daily 1 mM, retinal lysates
Text: The other eye from each animal was used for protein analyses for inflammatory markers and insulin receptor signaling. Western blotting was done as described (9). Antibodies used were total insulin receptor beta (1:500, Cellular Signaling, Danvers, Mass.), phosphorylated insulin receptor beta (Tyr 1150/1151, 1:500, Cellular Signaling, Danvers, Mass.), total Akt (1:500, Cellular Signaling, Danvers, Mass.), and phosphorylated Akt (Ser 473, 1:500, Cellular Signaling, Danvers, Mass.). For analyses of the data, mean densitometry values were obtained using the Kodak 2.0 software. The ratio of phosphorylated protein was compared to levels of total protein.

## COc1cc(CCNC[C@H](O)c2ccc(O)c(O)c2)cc(OC)c1OC.Cl (single isomer, unassigned) [Compound 2, 4-[1-hydroxy-2-(1-ethylamino-3-,4-,5-trimethoxyphenyl)ethyl]benzene-1,2-diol hydrochloride]
[1]
  left ventricle compared to untreated diabetic rats: no difference in the left ventricle
[2]
  PKA activity in the retina: showed the highest increase in PKA activity; also recorded: significantly increased PKA activity in the retina
[3]
  development of retinal vasculature (retinal flat mounts): the retina is much more developed and appears normal
[4]
  cleaved caspase 3 levels in retinal lysates: reduced following treatment
[5]; REC in 25 mM glucose
  reduction of TNFalpha levels versus not-treated controls: 23%
  reduction of caspase 3 levels versus not-treated controls: 54%
[5]; REC in high glucose, vs non-treated
  TNFalpha levels, in words: significantly reduced
[5]; REC in high glucose, vs non-treated, hydrochloride
  cleaved caspase 3 levels, in words: significantly decreased caspase 3 levels; also recorded: significantly reduced levels of cleaved caspase 3
[6]
  ratio of phosphorylated Akt to total Akt: maintained the ratio of phosphorylated Akt at levels similar to control values
